Literature values in patent publication US12121499B2, “Pharmaceutical composition comprising the phytocannabinoids cannabidivarin (CBDV) and cannabidiol (CBD)” (priority 2011, dated 2024).
Like-named read-outs stand apart in the source and are kept apart here.

Columns and labels:
CB2 receptor = CB2 receptor (Homo sapiens, UniProt P34972); details: WO 2007/138322
[1] = rats; WO 2007/138322
CB1 receptor [2] = molecular target: T1, CB1 receptor (Homo sapiens, UniProt P21554); details: WO 2007/138322
T1 sequence (P21554 whole entry): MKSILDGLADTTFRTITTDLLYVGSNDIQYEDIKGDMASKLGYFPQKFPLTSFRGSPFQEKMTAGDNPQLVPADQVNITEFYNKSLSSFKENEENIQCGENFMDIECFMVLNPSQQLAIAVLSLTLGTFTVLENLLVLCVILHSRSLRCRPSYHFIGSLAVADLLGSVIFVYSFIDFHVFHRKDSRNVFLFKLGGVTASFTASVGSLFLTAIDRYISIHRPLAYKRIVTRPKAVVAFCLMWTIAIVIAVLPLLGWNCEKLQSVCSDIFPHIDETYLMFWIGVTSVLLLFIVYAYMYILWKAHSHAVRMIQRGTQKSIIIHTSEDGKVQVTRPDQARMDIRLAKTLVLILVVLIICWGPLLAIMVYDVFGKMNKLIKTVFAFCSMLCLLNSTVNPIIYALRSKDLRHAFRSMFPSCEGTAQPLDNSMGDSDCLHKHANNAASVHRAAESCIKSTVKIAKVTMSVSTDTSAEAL

[3] = system: seizure frequency in epileptic patients; details: 200-300 mg of cannabidiol per day plus standard antiepileptic drugs; 12 epileptic patients
grand mal seizures = details: 200-300 mg cannabidiol plus regular medication
seizure frequency = details: 900-1200 mg of cannabidiol a day for 10 months; single patient
CB1 receptor [4] = molecular target: T1, CB1 receptor; details: WO 2006/054057; Pertwee (2000)
seizures = details: 5 institutionalized children not responding to phenobarbital and phenoytin
[5] = rats, doses greater than 200 mg/kg

Sequence of CB2 receptor (P34972 whole entry): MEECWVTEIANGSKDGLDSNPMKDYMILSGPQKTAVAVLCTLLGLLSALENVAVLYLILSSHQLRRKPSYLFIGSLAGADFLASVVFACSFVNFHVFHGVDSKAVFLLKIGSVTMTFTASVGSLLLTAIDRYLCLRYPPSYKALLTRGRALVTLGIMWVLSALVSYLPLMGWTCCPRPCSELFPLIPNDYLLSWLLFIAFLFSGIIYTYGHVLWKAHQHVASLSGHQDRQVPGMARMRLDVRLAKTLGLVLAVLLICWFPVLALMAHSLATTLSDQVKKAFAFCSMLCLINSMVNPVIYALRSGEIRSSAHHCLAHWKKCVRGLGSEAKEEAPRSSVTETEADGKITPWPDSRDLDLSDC

For `CCC1(c2ccccc2)C(=O)NC(=O)NC1=O` [phenobarbital], the “motor and other side effects” value (rat models of epilepsy, doses greater than 250 mg/kg) is listed as “notable motor and other side effects (including sedation)”.

For `C=C(C)[C@@H]1CCC(C)=C[C@H]1c1c(O)cc(CCCCC)cc1O` [CBD, Cannabidiol], the “action at the CB2 receptor” value (CB2 receptor) is listed as “inverse agonist”, the bodyweight [1] is listed as “reduced bodyweight” and the “action at the CB1 receptor” value (CB1 receptor [2]) is listed as “inverse agonist”. For the same molecule, the seizure frequency [3] was “no significant improvement”, the “patients who remained unchanged” value (grand mal seizures) was 1 and the “patients who showed minor improvement” value (grand mal seizures) was 2. For the same molecule, the “patients who showed partial improvement” value (grand mal seizures) was 2, the unwanted effect (grand mal seizures) was “mild sedation” and the “patients who showed complete improvement” value (grand mal seizures; 16 grand mal patients in study) was 3. For the same molecule, the seizure frequency (seizure frequency) was “markedly reduced”.

In the case of `CCCc1cc(O)c2c(c1)OC(C)(C)[C@@H]1CCC(C)=C[C@@H]21` [THCV, Tetrahydrocannabivarin], the “action at the CB1 receptor” value (CB1 receptor [4]) is listed as “CB1 receptor antagonist”.

For `CCCCCc1cc(O)c2c(c1)OC(C)(C)[C@@H]1CCC(C)=C[C@@H]21` [THC, Tetrahydrocannabinol], the seizure outcome (seizures) is listed as “One became entirely free of seizures, one became almost completely free of seizures, and the other three did no worse than before”.

For `CCCC(CCC)C(=O)O` [valproate], the “motor and other side effects” value [5] is given as “notable motor and other side effects (including sedation)”.

For `CCC1(C)CC(=O)NC1=O` (stereo not drawn) [ethosuximide], the “motor and other side effects” value [5] is given as “notable motor and other side effects (including sedation)”.
